“And” between values parts separate entries of the source, which are not always exact repeats. Equal entries are not always repeated.
Experiment: xn = mol fraction of the nth substance listed

OC[C@H]1O[C@H](O[C@H]2[C@H](O)[C@@H](O)C(O)O[C@@H]2CO)[C@H](O)[C@@H](O)[C@@H]1O (stereo not given in full) + O
viscosity
Conditions | 293.15 K | 298.15 K | 303.15 K | 308.15 K | 313.15 K | 318.15 K
100 kPa, x1 = 0.0009465 | – | – | – | 0.759 mPa·s | – | 0.627 mPa·s
100 kPa, x1 = 0.000975 | – | 0.942 mPa·s | – | 0.763 mPa·s | – | 0.628 mPa·s
100 kPa, x1 = 0.001093 | – | 0.948 mPa·s | – | 0.765 mPa·s | – | 0.632 mPa·s
100 kPa, x1 = 0.001306 | – | 0.96 mPa·s | – | 0.773 mPa·s | – | 0.639 mPa·s
100 kPa, x1 = 0.00134 | – | 0.96 mPa·s | – | 0.776 mPa·s | – | 0.639 mPa·s
100 kPa, x1 = 0.001467 | – | 0.968 mPa·s | – | – | – | –
100 kPa, x1 = 0.00157 | – | 0.972 mPa·s | – | 0.786 mPa·s | – | 0.645 mPa·s
100 kPa, x1 = 0.001596 | – | 0.975 mPa·s | – | 0.785 mPa·s | – | 0.648 mPa·s
100 kPa, x1 = 0.001818 | – | 0.985 mPa·s | – | 0.794 mPa·s | – | 0.655 mPa·s
100 kPa, x1 = 0.002168 | – | – | – | 0.804 mPa·s | – | 0.667 mPa·s
100 kPa, x1 = 0.002215 | – | – | – | 0.81 mPa·s | – | 0.669 mPa·s
100 kPa, x1 = 0.002657 | – | 1.029 mPa·s | – | 0.827 mPa·s | – | 0.682 mPa·s
101 kPa, x1 = 0.0009 | 1.022 mPa·s | 0.9029 mPa·s | 0.8044 mPa·s | 0.7221 mPa·s | 0.6529 mPa·s | –
101 kPa, x1 = 0.00099 | 1.025 mPa·s | 0.9064 mPa·s | 0.8074 mPa·s | 0.724 mPa·s | 0.6549 mPa·s | –
101 kPa, x1 = 0.0011 | 1.03 mPa·s | 0.9093 mPa·s | 0.8099 mPa·s | 0.7266 mPa·s | 0.6564 mPa·s | –
101 kPa, x1 = 0.0012 | 1.033 mPa·s | 0.9119 mPa·s | 0.812 mPa·s | 0.7287 mPa·s | 0.6586 mPa·s | –
101 kPa, x1 = 0.0013 | 1.037 mPa·s and 1.041 mPa·s | 0.9159 mPa·s and 0.9193 mPa·s | 0.8144 mPa·s and 0.8178 mPa·s | 0.7315 mPa·s and 0.7341 mPa·s | 0.6606 mPa·s and 0.6619 mPa·s | –
101 kPa, x1 = 0.0014 | 1.045 mPa·s | 0.9231 mPa·s | 0.8202 mPa·s | 0.7362 mPa·s | 0.6645 mPa·s | –
101 kPa, x1 = 0.0015 | 1.05 mPa·s | 0.9262 mPa·s | 0.823 mPa·s | 0.7383 mPa·s | 0.6669 mPa·s | –
101 kPa, x1 = 0.0016 | 1.054 mPa·s | – | 0.8261 mPa·s | 0.7406 mPa·s | 0.6687 mPa·s | –
101 kPa, x1 = 0.0018 | 1.062 mPa·s | 0.9361 mPa·s | 0.833 mPa·s | 0.7449 mPa·s | 0.6724 mPa·s | –
101.3 kPa, x1 = 0.000724 | – | – | – | 0.751 mPa·s | – | –
101.3 kPa, x1 = 0.00107 | – | 0.948 mPa·s | – | 0.766 mPa·s | – | 0.633 mPa·s
101.3 kPa, x1 = 0.00143 | – | 0.964 mPa·s | – | 0.779 mPa·s | – | 0.643 mPa·s
101.3 kPa, x1 = 0.00179 | – | 0.984 mPa·s | – | 0.794 mPa·s | – | 0.655 mPa·s
101.3 kPa, x1 = 0.002146 | – | – | – | 0.809 mPa·s | – | –
101.3 kPa, x1 = 0.002501 | – | 1.019 mPa·s | – | 0.819 mPa·s | – | 0.678 mPa·s
101.3 kPa, x1 = 0.002851 | – | 1.037 mPa·s | – | 0.836 mPa·s | – | 0.688 mPa·s
101.3 kPa, x1 = 0.003177 | – | 1.053 mPa·s | – | 0.848 mPa·s | – | 0.698 mPa·s
